Experimental data as given in patent publication US7928099B2, “Pyrimido [4,5-D] azepine derivatives as 5-HT2c agonists” (Pfizer Inc, priority 2007, dated 2011).

Biological target: T1, human recombinant 5-HT2c receptor (Homo sapiens, UniProt P28335)
T1 construct: expressed in transfected cells; host or cells: CHO K1 (Chinese hamster ovary), stably transfected
T1 sequence (P28335 33-458): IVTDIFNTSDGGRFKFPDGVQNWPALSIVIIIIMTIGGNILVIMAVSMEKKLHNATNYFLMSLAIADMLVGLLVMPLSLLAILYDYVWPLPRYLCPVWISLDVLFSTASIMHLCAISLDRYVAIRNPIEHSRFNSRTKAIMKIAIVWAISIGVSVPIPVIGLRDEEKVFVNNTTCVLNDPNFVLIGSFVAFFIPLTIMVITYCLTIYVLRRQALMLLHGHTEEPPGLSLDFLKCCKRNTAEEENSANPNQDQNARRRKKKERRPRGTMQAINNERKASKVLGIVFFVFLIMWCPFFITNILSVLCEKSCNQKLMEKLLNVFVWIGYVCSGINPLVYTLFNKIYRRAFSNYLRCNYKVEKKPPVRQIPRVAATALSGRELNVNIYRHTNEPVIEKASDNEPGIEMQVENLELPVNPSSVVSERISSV
Assay: FLIPR fluorescent Ca2+ mobilisation agonist assay in CHO K1 cells (Method 1)
Format: cell-based
Details: for Emax: CHO-K1, efficacy; for EC50: agonist affinity, FLIPR
Description: The compounds of the invention were evaluated for biological activity by measuring the agonist affinity (EC50) and efficacy (Emax) at the human recombinant 5-HT2c receptor expressed in CHO K1 cells, using a fluorescent based Ca^2+ mobilisation assay format compatible with FLIPR technology (Method 1). Additionally, the binding activity of a compound was determined by measuring its affinity for the human recombinant 5-HT2c receptor membranes from Swiss 3T3 cells (Method 2).
The agonist affinity of the compounds were tested by measuring their ability to induce a fluorescent based Ca^2+ mobilization signal in a FLIPR assay using CHO K1 cells expressing recombinant human 5-HT2C receptor. Both agonist affinity (EC50) and efficacy (Emax) were determined.
Chinese hamster ovary cells (CHO K1) stably transfected with the 5-HT2c receptor were cultured under standard cell culture techniques. Specifically, cells were grown at 37° C. and 5% CO2 in Dulbecco's Modified Eagle's Medium (DMEM) culture media supplemented with 10% dialysed foetal calf serum (FCS), 1% non-essential amino acids, 1 mM sodium pyruvate, 800 μg/mL geneticin and 50 μg/ml zeocin. Cells were harvested for passaging and storage using trypsin-EDTA, centrifugation and resuspension in culture medium. Cells were grown to 60-80% confluency, harvested and adjusted to 15-20×10^6 cells/ml/vial in medium/10% DMSO and stored long-term at −80° C.
Cells were seeded into black-walled clear-bottomed 384 well plates 24 h before use. Frozen cells were defrosted in a 37° C. water bath and immediately transferred into 1 mL/vial 37° C. culture medium, diluted to 10 ml and DMSO removed by centrifugation. The cells were resuspended in 15 ml/vial of cell culture medium, counted and adjusted to give 500,000 cells/mL (10,000 cells/well). […] of cell suspension was added to the 384 well plates which were then incubated overnight at 37° C.
The maximum agonist response was determined with 5-HT at a final assay concentration of 10 μM in the diluent above. The minimum response was determined with Dulbeccos PBS (+CaCl2, +MgCl2) with 0.9% DMSO and 0.05% pluronic F-127. Test compounds, maximum and minimum controls were added to a 384 well polypropylene plate.
The FLIPR calcium assay reagent was diluted with assay buffer (Hank's Balanced Salt Solution (HBSS))/20 mM HEPES and 2.5 mM probenecid (diluted with 1M Sodium hydroxide and DPBS (+CaCl2, +MgCl2)).
20 μl/well FLIPR calcium assay reagent was added to the cell plates, which were incubated for 1 h at 37° C. Cell plates and compound plates were then transferred onto the FLIPR. The assay was run using the appropriate FLIPR program, which initiates the reaction by transferring 15 μL compound into the corresponding, well of the cell plate.
The statistical parameter exported from each well was the max peak height of the response.

[1] = percentage of mean maximal response to 10 μM 5-HT

| SMILES | Emax [1] | EC50 | Emax % (efficacy, percentage of mean maximal response to 10 μM 5-HT) |
| --- | --- | --- | --- |
| CCN(C)c1nc2c(c(NCC(C)C)n1)CCNCC2 [Example 101, N-2-ethyl-N-4-isobutyl-N-2-methyl-6,7,8,9-tetra-hydro-5H-pyrimido[4,5-d]azepine-2,4-diamine] | 49.9% | 0.326 µM |  |
| CN(C)c1nc2c(c(N(C)C)n1)CCNCC2 [Example 107, N,N,N′,N′-tetramethyl-6,7,8,9-tetrahydro-5H-pyrimido[4,5-d]azepine-2,4-diamine] | 43.2% | 0.363 µM |  |
| CN(C)c1nc(N(C)Cc2ccccc2)nc2c1CCNCC2 [Example 113, N-2-benzyl-N-2,N-4,N-4-trimethyl-6,7,8,9-tetra-hydro-5H-pyrimido[4,5-d]azepine-2,4-diamine] |  | 0.279 µM | 50.8% |
| CCN(C)c1nc(N2CCOCC2)nc2c1CCNCC2 [Example 95, N-ethyl-N-methyl-2-morpholin-4-yl-6,7,8,9-tetrahydro-5H-pyrimido-[4,5-d]azepin-4-amine] | 88.4% | 0.229 µM |  |
| CCN(C)c1nc2c(c(N(C)C)n1)CCNCC2 [Example 100, N-2-ethyl-N-2,N-4,N-4-trimethyl-6,7,8,9-tetra-hydro-5H-pyrimido-[4,5-d]azepine-2,4-diamine] | 51.2% | 0.122 µM |  |
| CCN(C)c1nc(N2CCSCC2)nc2c1CCNCC2 [Example 92, N-ethyl-N-methyl-2-thiomorpholin-4-yl-6,7,8,9-tetrahydro-5H-pyrimido-[4,5-d]azepin-4-amine] | 77.3% | 0.09 µM |  |
| Cc1ncccc1COc1nc(Cc2ccccc2)nc2c1CCNCC2 [Example 77, 2-benzyl-4-[(2-methyl-pyridin-3-yl)methoxy]-6,7,8,9-tetrahydro-5H-pyrimido[4,5-d]azepine] | 70.3% | 0.13 µM |  |
| CN1CCC[C@H]1COc1nc(Cc2ccccc2)nc2c1CCNCC2 [Example 78, 2-benzyl-4-{[(2S)-1-methylpyrrolidin-2-yl]methoxy}-6,7,8,9-tetrahydro-5H-pyrimido[4,5-d]azepine] | 69.5% | 0.138 µM |  |
| CCN(C)c1nc2c(c(NCC3CC3)n1)CCNCC2 [Example 99, N-4-(cyclopropylmethyl)-N-2-ethyl-N-2-methyl-6,7,8,9-tetrahydro-5H-pyrimido[4,5-d]azepin-4-amine] | 69.5% | 0.103 µM |  |
| c1ccc(CCNc2nc3c(c(N4CCSCC4)n2)CCNCC3)cc1 [Example 110, N-(2-phenylethyl)-4-thiomorpholin-4-yl-6,7,8,9-tetrahydro-5H-pyrimido[4,5-d]azepin-2-amine] | 38.8% | 0.604 µM |  |
| c1ccc(Cc2nc3c(c(OCCc4ccccn4)n2)CCNCC3)cc1 [Example 73, 2-benzyl-4-(2-pyridin-2-ylethoxy)-6,7,8,9-tetrahydro-5H-pyrimido[4,5-d]azepine] | 83.3% | 0.00861 µM |  |
| CCCNc1nc(N(C)CC2CC2)nc2c1CCNCC2 [Example 103, N-2-(cyclopropylmethyl)-N-2-methyl-N-4-propyl-6,7,8,9-tetrahydro-5H-pyrimido[4,5-d]azepine-2,4-diamine] | 32.7% | 0.449 µM |  |
| CC(COc1nc(Cc2ccccc2)nc2c1CCNCC2)N(C)C (stereo not drawn) [Example 83, 1-[(2-benzyl-6,7,8,9-tetrahydro-5H-pyrimido-[4,5-d]azepin-4-yl)oxy]-N,N-dimethylpropan-2-amine] | 45.7% | 0.338 µM |  |
| Cc1ccc(Cc2ncc3c(n2)CCNCC3)cc1 [Example 64, 2-(4-Methylbenzyl)-6,7,8,9-tetrahydro-5H-pyrimido[4,5-d]azepine] | 63.1% | 0.1 µM |  |
| CCCCNc1nc(N2CCSCC2)nc2c1CCNCC2 [Example 89, N-butyl-2-thiomorpholin-4-yl-6,7,8,9-tetrahydro-5H-pyrimido[4,5-d]-azepin-4-amine] | 48.2% | 0.0336 µM |  |
| CCCNc1nc2c(c(N3CCSCC3)n1)CCNCC2 [Example 111, N-propyl-4-thiomorpholin-4-yl-6,7,8,9-tetrahydro-5H-pyrimido[4,5-d]-azepin-2-amine] | 64.3% | 0.141 µM |  |
| CCNc1nc2c(c(N(C)CC3CC3)n1)CCNCC2 [Example 112, N-4-(cyclopropylmethyl)-N-2-ethyl-N-4-methyl-6,7,8,9-tetrahydro-5H-pyrimido[4,5-d]azepine-2,4-diamine] | 42.8% | 0.543 µM |  |
| C1Cc2nc(N3CCSCC3)nc(N3CCSCC3)c2CCN1 [Example 94, 2,4-dithiomorpholin-4-yl-6,7,8,9-tetrahydro-5H-pyrimido[4,5-d]azepine] | 80.8% | 0.261 µM |  |
| c1ccc2c(c1)CCN(c1nc3c(c(N4CCSCC4)n1)CCNCC3)C2 [Example 88, 2-(3,4-dihydroisoquinolin-2(1H)-yl)-4-thiomorpholin-4-yl-6,7,8,9-tetrahydro-5H-pyrimido[4,5-d]-azepin-4-amine] | 67.6% | 0.838 µM |  |
| Fc1cccc(Cc2ncc3c(n2)CCNCC3)c1 [Example 61, 2-(3-Fluorobenzyl)-6,7,8,9-tetrahydro-5H-pyrimido[4,5-d]azepine] | 67.1% | 0.125 µM |  |
| Clc1ccc(Cc2ncc3c(n2)CCNCC3)cc1 [Example 57, 2-(4-Chlorobenzyl)-6,7,8,9-tetrahydro-5H-pyrimido[4,5-d]azepine] | 64.7% | 0.192 µM |  |
| Fc1ccccc1Cc1ncc2c(n1)CCNCC2 [Example 60, 2(2-Fluorobenzyl)-6,7,8,9-tetrahydro-5H-pyrimido[4,5-d]azepine] | 65.1% | 0.194 µM |  |
| CC(C)COc1nc(Cc2ccccc2)nc2c1CCNCC2 [Example 76, 2-benzyl-4-isobutoxy-6,7,8,9-tetrahydro-5H-pyrimido[4,5-d]azepine] | 34% | 0.127 µM |  |
| c1ccc(Cc2nc3c(c(OCCc4ccncc4)n2)CCNCC3)cc1 [Example 79, 2-benzyl-4-(2-pyridin-4-ylethoxy)-6,7,8,9-tetrahydro-5H-pyrimido[4,5-d]azepine] | 67.3% | 0.154 µM |  |
| FC(F)(F)CCCOc1nc(Cc2ccccc2)nc2c1CCNCC2 [Example 84, 2-benzyl-4-(4,4,4-trifluorobutoxy)-6,7,8,9-tetrahydro-5H-pyrimido[4,5-d]azepine] | 36.4% | 0.395 µM |  |
| CN(C)c1nc(N2CCOCC2)nc2c1CCNCC2 [Example 97, N,N-dimethyl-2-morpholin-4-yl-6,7,8,9-tetrahydro-5H-pyrimido-[4,5-d]azepin-4-amine] | 84.6% | 0.0676 µM |  |
| CN1CCC(COc2nc(Cc3ccccc3)nc3c2CCNCC3)CC1 [Example 85, 2-benzyl-4-[(1-methyl-piperidin-4-yl)methoxy]-6,7,8,9-tetrahydro-5H-pyrimido[4,5-d]azepine] | 86.3% | 0.421 µM |  |
| CCN(C)c1nc2c(c(NC)n1)CCNCC2 [Example 102, N-2-ethyl-N-2,N-4-dimethyl-6,7,8,9-tetra-hydro-5H-pyrimido[4,5-d]-azepine-2,4-diamine] | 74.3% | 0.173 µM |  |
| c1ccc(CNc2nc(N3CCC3)nc3c2CCNCC3)cc1 [Example 108, 2-azetidin-1-yl-N-benzyl-6,7,8,9-tetrahydro-5H-pyrimido[4,5-d]azepin-4-amine] | 44.4% | 0.149 µM |  |
| c1ccc(Cc2nc3c(c(OCC4CCCO4)n2)CCNCC3)cc1 (stereo not drawn) [Example 74, 2-benzyl-4-(2-tetra-hydrofuran-2-ylmethoxy)-6,7,8,9-tetrahydro-5H-pyrimido[4,5-d]azepine] | 86.7% | 0.0171 µM |  |
